Data taken from patent US20240270821A1, “GIP/GLP1/GCG TRI-RECEPTOR AGONISTS AND USES THEREOF” (priority 2023, published 2024).
Read-outs that look alike come from different tables or passages of the source. Starred links: 1 amine or outer side, 2 acyl side, 3 side chain; linkers in the order of their positions; H or OH if unused. Non-standard residues stand in square brackets, D forms with d. Residues, ends and D or L forms follow the SMILES beside them. Groups on a side chain read outwards from the residue. *: point of attachment. C20 diacid = O=C(O)CCCCCCCCCCCCCCCCCCC(=O)*; C18 diacid = O=C(O)CCCCCCCCCCCCCCCCC(=O)*; αMePhe(2-F) = C[C@](N)(Cc1ccccc1F)C(=O)O; γGlu = O=C(O)[C@H](CCC(=O)[*:2])N[*:1]; αMe4Pal = C[C@](N)(Cc1ccncc1)C(=O)O; αMeY = C[C@](N)(Cc1ccc(O)cc1)C(=O)O; 4Pal = N[C@@H](Cc1ccncc1)C(=O)O; αMeL = CC(C)C[C@](C)(N)C(=O)O; αMeS = C[C@](N)(CO)C(=O)O; Orn = NCCC[C@H](N)C(=O)O; AEEA = NCCOCCOCC(=O)O; Aib = CC(C)(N)C(=O)O

Legend:
Format in all cases: cell-based
hGIPR [1] = molecular target: T1, hGIPR (Homo sapiens, UniProt P48546); experiment: Functional cAMP activation in the presence of 0.1% casein (no HSA); conditions: read-out: Relative cAMP EC50, hGIPR;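 also: intracellular cAMP rise after 30 min at 37 °C read by HTRF against a standard curve, scaled between buffer alone (0%) and top control ligand concentration (100%), four-parameter fit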
T1 sequence (P48546 22-466): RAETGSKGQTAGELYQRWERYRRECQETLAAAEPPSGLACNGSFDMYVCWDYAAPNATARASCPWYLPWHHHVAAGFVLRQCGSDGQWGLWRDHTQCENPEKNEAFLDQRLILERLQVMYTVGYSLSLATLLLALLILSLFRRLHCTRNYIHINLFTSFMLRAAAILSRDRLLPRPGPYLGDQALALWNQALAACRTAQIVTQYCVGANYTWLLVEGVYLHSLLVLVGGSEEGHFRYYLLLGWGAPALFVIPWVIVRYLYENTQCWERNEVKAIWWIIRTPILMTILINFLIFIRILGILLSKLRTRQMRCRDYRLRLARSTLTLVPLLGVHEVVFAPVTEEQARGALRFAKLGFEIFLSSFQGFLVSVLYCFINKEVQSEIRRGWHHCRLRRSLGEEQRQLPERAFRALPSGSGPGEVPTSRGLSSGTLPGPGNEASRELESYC

hGLP-1R [2] = molecular target: T2, hGLP-1R (Homo sapiens, UniProt P43220); experiment: Functional cAMP activity in the presence of 1% HSA; conditions: read-out: cAMP Rel EC50, hGLP-1R
hGIPR [3] = molecular target: T1, hGIPR; experiment: Functional cAMP activity in the presence of 1% HSA; conditions: read-out: cAMP Rel EC50, hGIPR
human GcgR = human GcgR (Homo sapiens, UniProt P47871); experiment: Functional cAMP activity in the presence of 1% HSA; conditions: read-out: cAMP Rel EC50, hGcgR
hGLP-1R [4] = molecular target: T2, hGLP-1R; experiment: Functional cAMP activation in the presence of 0.1% casein (no HSA); conditions: read-out: Relative cAMP EC50, hGLP-1R;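 as to Relative cAMP EC50, hGLP-1R: intracellular cAMP rise after 30 min at 37 °C read by HTRF, normalized between buffer only (0%) and maximal control ligand (100%), four-parameter variable-slope fit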;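 as to Relative cAMP EC50, hGcgR: intracellular cAMP rise after 30 min at 37 °C, read by HTRF against a cAMP standard curve, scaled from buffer only (0%) to maximal control ligand response (100%)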
hGcgR = hGcgR (Homo sapiens, UniProt P47871); experiment: as above; conditions: read-out: Relative cAMP EC50, hGcgR;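 also: intracellular cAMP rise after 30 min at 37 °C, read by HTRF against a cAMP standard curve, scaled from buffer only (0%) to maximal control ligand response (100%)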
[5] = in the presence of 0.1% casein (no HSA), geometric mean

T2 sequence (P43220 24-463): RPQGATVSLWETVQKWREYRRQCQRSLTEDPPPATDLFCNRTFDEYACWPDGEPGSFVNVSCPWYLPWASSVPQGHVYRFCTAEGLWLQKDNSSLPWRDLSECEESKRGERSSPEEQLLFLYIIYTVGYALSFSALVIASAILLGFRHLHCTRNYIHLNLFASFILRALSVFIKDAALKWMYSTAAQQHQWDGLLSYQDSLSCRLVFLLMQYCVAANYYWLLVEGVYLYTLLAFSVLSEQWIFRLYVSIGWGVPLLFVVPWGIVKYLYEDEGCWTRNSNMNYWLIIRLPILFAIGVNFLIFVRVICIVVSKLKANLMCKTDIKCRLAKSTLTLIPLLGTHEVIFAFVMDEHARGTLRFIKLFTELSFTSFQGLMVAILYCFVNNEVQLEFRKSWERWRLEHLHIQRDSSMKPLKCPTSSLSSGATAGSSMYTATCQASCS
Sequence of human GcgR (P47871 26-477): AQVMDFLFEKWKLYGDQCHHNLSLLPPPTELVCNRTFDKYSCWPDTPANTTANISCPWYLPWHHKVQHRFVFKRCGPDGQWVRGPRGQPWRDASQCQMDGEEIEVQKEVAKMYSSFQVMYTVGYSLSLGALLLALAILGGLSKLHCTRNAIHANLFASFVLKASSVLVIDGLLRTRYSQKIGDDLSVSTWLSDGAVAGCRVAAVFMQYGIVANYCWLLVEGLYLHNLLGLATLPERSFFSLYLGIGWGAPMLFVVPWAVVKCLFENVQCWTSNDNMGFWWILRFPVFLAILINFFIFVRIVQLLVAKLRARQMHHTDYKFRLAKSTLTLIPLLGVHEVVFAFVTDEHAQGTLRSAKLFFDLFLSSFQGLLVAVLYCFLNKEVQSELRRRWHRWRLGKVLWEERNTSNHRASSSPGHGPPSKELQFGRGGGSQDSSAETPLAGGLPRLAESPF
Sequence of hGcgR (P47871 26-477): as above

Compound | EC50 (hGIPR [1]) | EC50 (hGLP-1R [2]) | EC50 (hGIPR [3]) | EC50 (human GcgR) | EC50 (hGLP-1R [4]) | EC50 (hGcgR) | EC50 (hGIPR [1]; [5]) | EC50 (hGLP-1R [4]; [5]) | EC50 (hGcgR; [5])
CC[C@H](C)[C@H](NC(=O)[C@H](Cc1ccccc1)NC(=O)[C@H](C)NC(=O)C(C)(C)NC(=O)[C@H](CCC(N)=O)NC(=O)[C@H](C)NC(=O)[C@H](CCCCNC(=O)COCCOCCNC(=O)CC[C@H](NC(=O)CCCCCCCCCCCCCCCCC(=O)O)C(=O)O)NC(=O)[C@H](CCCCN)NC(=O)[C@H](CC(=O)O)NC(=O)[C@H](CC(C)C)NC(=O)[C@](C)(CC(C)C)NC(=O)[C@@H](NC(=O)[C@H](CO)NC(=O)[C@H](Cc1ccncc1)NC(=O)[C@H](CC(=O)O)NC(=O)[C@H](CO)NC(=O)[C@@H](NC(=O)[C@](C)(Cc1ccccc1F)NC(=O)[C@@H](NC(=O)CNC(=O)[C@H](CCC(N)=O)NC(=O)C(C)(C)NC(=O)[C@@H](N)Cc1ccc(O)cc1)[C@@H](C)O)[C@@H](C)O)[C@@H](C)CC)C(=O)N[C@@H](CCC(=O)O)C(=O)N[C@@H](Cc1ccc(O)cc1)C(=O)N[C@@H](CC(C)C)C(=O)N[C@@H](CCC(=O)O)C(=O)N[C@@H](CCC(=O)O)C(=O)NCC(=O)NCC(=O)N1CCC[C@H]1C(=O)N[C@@H](CO)C(=O)N[C@@H](CO)C(=O)NCC(=O)N[C@@H](C)C(=O)N1CCC[C@H]1C(=O)N[C@@H](CCC(=O)O)C(=O)N1CCC[C@H]1C(=O)N[C@@H](CO)C(N)=O [Example 443] (H-Y[Aib]QGT[αMePhe(2-F)]TSD[4Pal]SI[αMeL]LDKK([AEEA-γGlu-C18 diacid])AQ[Aib]AFIEYLEEGGPSSGAPEPS-NH2) | 0.0291 nM | 34.3 nM | 1.57 nM | 265 nM | 0.572 nM | 6.09 nM |  |  | 
CC[C@H](C)[C@H](NC(=O)[C@H](CCCN)NC(=O)[C@H](CC(=O)O)NC(=O)[C@H](CC(C)C)NC(=O)[C@H](CC(C)C)NC(=O)[C@@H](NC(=O)[C@H](CO)NC(=O)[C@H](Cc1ccncc1)NC(=O)[C@H](CC(=O)O)NC(=O)[C@H](CO)NC(=O)[C@@H](NC(=O)[C@](C)(Cc1ccccc1F)NC(=O)[C@@H](NC(=O)CNC(=O)[C@H](CCC(N)=O)NC(=O)C(C)(C)NC(=O)[C@@H](N)Cc1ccc(O)cc1)[C@@H](C)O)[C@@H](C)O)[C@@H](C)CC)C(=O)N[C@@H](C)C(=O)N[C@@H](CCC(N)=O)C(=O)NC(C)(C)C(=O)N[C@@H](C)C(=O)N[C@@H](Cc1ccccc1)C(=O)N[C@H](C(=O)N[C@@H](CCCCNC(=O)COCCOCCNC(=O)CC[C@H](NC(=O)CCCCCCCCCCCCCCCCC(=O)O)C(=O)O)C(=O)N[C@@H](Cc1ccc(O)cc1)C(=O)N[C@@H](CC(C)C)C(=O)N[C@@H](CCC(=O)O)C(=O)N[C@@H](CCC(=O)O)C(=O)NCC(=O)NCC(=O)N1CCC[C@H]1C(=O)N[C@@H](CO)C(=O)N[C@@H](CO)C(=O)NCC(=O)N[C@@H](C)C(=O)N1CCC[C@H]1C(=O)N1CCC[C@H]1C(=O)N1CCC[C@H]1C(=O)N[C@@H](CO)C(N)=O)[C@@H](C)CC [Example 454] (H-Y[Aib]QGT[αMePhe(2-F)]TSD[4Pal]SILLD[Orn]IAQ[Aib]AFIK([AEEA-γGlu-C18 diacid])YLEEGGPSSGAPPPS-NH2) | 0.0154 nM | 135 nM | 4.31 nM | 1280 nM | 0.821 nM | 9.11 nM |  |  | 
CC[C@H](C)[C@H](NC(=O)[C@H](Cc1ccccc1)NC(=O)[C@H](C)NC(=O)C(C)(C)NC(=O)[C@H](CCC(N)=O)NC(=O)[C@H](C)NC(=O)[C@H](CCCCNC(=O)COCCOCCNC(=O)CC[C@H](NC(=O)CCCCCCCCCCCCCCCCCCC(=O)O)C(=O)O)NC(=O)[C@H](CCCCN)NC(=O)[C@H](CC(=O)O)NC(=O)[C@H](CC(C)C)NC(=O)[C@](C)(CC(C)C)NC(=O)[C@H](CCCN)NC(=O)[C@H](CO)NC(=O)[C@H](Cc1ccccc1)NC(=O)[C@H](CC(=O)O)NC(=O)[C@H](CO)NC(=O)[C@@H](NC(=O)[C@H](Cc1ccccc1)NC(=O)[C@@H](NC(=O)CNC(=O)[C@H](CCC(N)=O)NC(=O)C(C)(C)NC(=O)[C@@H](N)Cc1ccc(O)cc1)[C@@H](C)O)[C@@H](C)O)C(=O)N[C@@H](CCC(=O)O)C(=O)N[C@@H](Cc1c[nH]c2ccccc12)C(=O)N[C@@H](CC(C)C)C(=O)N[C@@H](CC(C)C)C(=O)N[C@@H](CCC(=O)O)C(=O)NCC(=O)NCC(=O)N1CCC[C@H]1C(=O)N[C@@H](CO)C(=O)N[C@@H](CO)C(=O)NCC(=O)N[C@@H](C)C(=O)N1CCC[C@H]1C(=O)N1CCC[C@H]1C(=O)N1CCC[C@H]1C(=O)N[C@@H](CO)C(=O)NCC(=O)N[C@@H](CCC(=O)O)C(N)=O [Example 100] |  | 1190 nM | 77.2 nM | 2390 nM |  |  | 0.293 nM | 3.21 nM | 13.1 nM
H-Y[Aib]QGTFTSD[4Pal][αMeS]Q[αMeL]LD[Orn]K([dE-γGlu-C18 diacid])AQ[αMe4Pal]QFIE[αMeY]LIE[Aib]GPSSGAPPPSGGGE-NH2 [Example 1187] |  | 154 nM | 7.11 nM | 370 nM |  |  | 0.0648 nM | 1.06 nM | 1.81 nM
H-Y[Aib]QGT[αMePhe(2-F)]TSD[4Pal][αMeS]I[αMeL]LD[Orn]K([AEEA-γGlu-C18 diacid])AQ[αMe4Pal]EFI[dE][αMeY]LVEGGPSSGAPPPESE-NH2 [Example 1156] |  | 47.1 nM | 1.33 nM | 337 nM |  |  | 0.0127 nM | 0.444 nM | 2.94 nM
H-Y[Aib]QGTFTSDFS[Orn][αMeL]LDKK([AEEA-γGlu-C18 diacid])AQ[Aib]AFIEYLLEGGESSGAPPPSGS-NH2 [Example 145] |  | 1480 nM | 108 nM | 693 nM |  |  | 0.539 nM | 4.26 nM | 3.14 nM
CC[C@H](C)[C@H](NC(=O)[C@H](Cc1ccccc1)NC(=O)[C@H](C)NC(=O)C(C)(C)NC(=O)[C@H](CCC(N)=O)NC(=O)[C@H](C)NC(=O)[C@H](CCCCNC(=O)COCCOCCNC(=O)COCCOCCNC(=O)CC[C@H](NC(=O)CCCCCCCCCCCCCCCCC(=O)O)C(=O)O)NC(=O)[C@H](CCCCN)NC(=O)[C@H](CC(=O)O)NC(=O)[C@H](CC(C)C)NC(=O)[C@](C)(CC(C)C)NC(=O)[C@H](CCCN)NC(=O)[C@H](CO)NC(=O)[C@H](Cc1ccccc1)NC(=O)[C@H](CC(=O)O)NC(=O)[C@H](CO)NC(=O)[C@@H](NC(=O)[C@H](Cc1ccccc1)NC(=O)[C@@H](NC(=O)CNC(=O)[C@H](CCC(N)=O)NC(=O)C(C)(C)NC(=O)[C@@H](N)Cc1ccc(O)cc1)[C@@H](C)O)[C@@H](C)O)C(=O)N[C@@H](CCC(=O)O)C(=O)N[C@@H](Cc1ccc(O)cc1)C(=O)N[C@@H](CC(C)C)C(=O)N[C@@H](CC(C)C)C(=O)N[C@@H](CCC(=O)O)C(=O)N[C@H](C)C(=O)NCC(=O)N1CCC[C@H]1C(=O)N[C@@H](CO)C(=O)N[C@@H](CO)C(=O)NCC(=O)N[C@@H](C)C(=O)N1CCC[C@H]1C(=O)N1CCC[C@H]1C(=O)N1CCC[C@H]1C(=O)N[C@@H](CO)C(=O)NCC(=O)N[C@@H](CCC(=O)O)C(N)=O [Example 128] |  | 679 nM | 24.3 nM | 1090 nM |  |  | 0.307 nM | 3.5 nM | 6.76 nM
H-Y[Aib]QGTFTSDYSI[αMeL]LDKIAAK([AEEA-AEEA-γGlu-C20 diacid])QFVEYLIAGGPSSGEPPPSEG-NH2 [Example 312] |  | 589 nM | 97.7 nM | 4070 nM |  |  | 0.504 nM | 2.66 nM | 7.5 nM
H-Y[Aib]QGT[αMePhe(2-F)]TSD[4Pal]SI[αMeL]LD[Orn]K([AEEA-γGlu-C18 diacid])AQ[αMe4Pal]EFI[dE][αMeY]LIEGGPSSGAPPPSGS-NH2 [Example 640] | 0.00696 nM | 27.8 nM | 0.591 nM | 730 nM | 0.288 nM | 9.5 nM |  |  | 
CC[C@H](C)[C@H](NC(=O)[C@H](Cc1ccccc1)NC(=O)[C@H](C)NC(=O)C(C)(C)NC(=O)[C@H](CCC(N)=O)NC(=O)[C@H](C)NC(=O)[C@H](CCCCNC(=O)COCCOCCNC(=O)CC[C@H](NC(=O)CCCCCCCCCCCCCCCCC(=O)O)C(=O)O)NC(=O)[C@H](CCCCN)NC(=O)[C@H](CC(=O)O)NC(=O)[C@H](CC(C)C)NC(=O)[C@](C)(CC(C)C)NC(=O)[C@@H](NC(=O)[C@H](CO)NC(=O)[C@H](Cc1ccc(O)cc1)NC(=O)[C@H](CC(=O)O)NC(=O)[C@H](CO)NC(=O)[C@@H](NC(=O)[C@](C)(Cc1ccccc1F)NC(=O)[C@@H](NC(=O)CNC(=O)[C@H](CCC(N)=O)NC(=O)C(C)(C)NC(=O)[C@@H](N)Cc1ccc(O)cc1)[C@@H](C)O)[C@@H](C)O)[C@@H](C)CC)C(=O)N[C@@H](CCC(=O)O)C(=O)N[C@@H](Cc1ccc(O)cc1)C(=O)N[C@@H](CC(C)C)C(=O)N[C@@H](CCC(=O)O)C(=O)N[C@@H](CCC(=O)O)C(=O)NCC(=O)NCC(=O)N1CCC[C@H]1C(=O)N[C@@H](CO)C(=O)N[C@@H](CO)C(=O)NCC(=O)N[C@@H](C)C(=O)N1CCC[C@H]1C(=O)N1CCC[C@H]1C(=O)N1CCC[C@H]1C(=O)N[C@@H](CO)C(=O)N[C@@H](CCC(=O)O)C(=O)NCC(N)=O [Example 431] | 0.0157 nM | 35.2 nM | 3.73 nM | 352 nM | 0.392 nM | 3.32 nM |  |  | 
